From paper PMC7138307 (PLoS ONE, 2020)

Columns and labels:
FES = target: T1, FES (Mus musculus, UniProt P16879); assay: In vivo target engagement, KiNativ ADP probe, mouse brain lysates; conditions: 75 mg/kg I.P., one hour, peptide LRADNTPVAVKSCR, Lys1
T1 construct: homogenized brain lysates were labeled with Desthiobiotin-ADP-acyl phosphate probe; from tissue; host or cells: mouse cortical brain lysate
Excerpt: (§1) To determine both in vivo target engagement and identify any potential off-target kinases inhibited by BIIB-TTBKi, we used a combination of desthiobiotin-ATP/ADP probes to covalently bind and biotinylate the conserved lysine residues at the active site of protein kinases (ActivX-KiNativ; Kyorin Pharmaceuticals, Ltd, Tokyo Japan). […] Lysates were trypsin digested and desthiobiotinylated peptides were captured on streptavidin beads. A list of 269 unique peptides were quantified through LC-MS/MS parallel reaction monitoring method. Target engagement was calculated as the percentage of peptide signal lost after addition of BIIB-TTBKi when compared to the vehicle treated lysate. Using the ADP probe, we were able to detect a total of 150 kinases in the mouse cortical brain lysates (Fig 5A).
(§2) Mice were euthanized one hour following injection and homogenized brain lysates were labeled with Desthiobiotin-ADP-acyl phosphate probe (ADP probe). Desthiobiotinylated peptides were captured on streptavidin beads and peptides were quantified through LC-MS/MS parallel reaction monitoring method. Target engagement was calculated as the percentage of peptide signal lost when compared to the vehicle treated lysate. (A) Visualization of the off-target effects of BIIB-TTBKi at 75mg/kg. The ADP probe labelled around 150 unique kinases in mouse cortical brain lysates.

PIP4K2C = target: T2, PIP4K2C (Mus musculus, UniProt Q91XU3); assay: as above; conditions: 75 mg/kg I.P., one hour, peptide TLVIKEVSSEDIADMHSNLSNYHQYIVK, ATP site
T2 construct: from tissue; host or cells: mouse cortical brain lysate
T2 sequence (Q91XU3 1-421): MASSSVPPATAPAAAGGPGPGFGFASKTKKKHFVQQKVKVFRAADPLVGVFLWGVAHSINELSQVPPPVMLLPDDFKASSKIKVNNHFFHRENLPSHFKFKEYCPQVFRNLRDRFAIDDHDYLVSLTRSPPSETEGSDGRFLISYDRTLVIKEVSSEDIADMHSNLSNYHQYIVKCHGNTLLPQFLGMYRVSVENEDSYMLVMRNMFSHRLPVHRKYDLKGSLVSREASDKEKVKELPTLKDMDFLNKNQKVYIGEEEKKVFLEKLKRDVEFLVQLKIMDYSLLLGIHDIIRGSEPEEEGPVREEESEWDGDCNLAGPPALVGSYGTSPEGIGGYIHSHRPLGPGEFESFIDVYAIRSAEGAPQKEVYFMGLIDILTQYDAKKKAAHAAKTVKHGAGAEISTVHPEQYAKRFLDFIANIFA
Excerpt: as §1, §2

PIP5K3 = target: T3, PIP5K3 (Mus musculus, UniProt Q9Z1T6); assay: as above; conditions: 75 mg/kg I.P., one hour, peptide GGKSGAAFYATEDDRFILK, ATP site
T3 construct: homogenized brain lysates were labeled with Desthiobiotin-ADP-acyl phosphate probe; from tissue; host or cells: mouse cortical brain lysate
Excerpt: as §1, §2

TTBK1, TTBK2 = assay: as above; conditions: 75 mg/kg I.P., one hour, peptide DIKPSNFAMGR, Lys2
Excerpt: as §1, §2

CaMK1a = target: T4, CaMK1a (Mus musculus, UniProt Q91YS8); assay: Ex vivo KiNativ ATP/ADP probe competition in mouse cortical brain lysates; format: binding
T4 construct: from tissue; host or cells: mouse cortical brain lysate

PITSLRE = target: T5, PITSLRE (Mus musculus, UniProt P24788); assay: as above; format: binding; conditions: DLKTSNLLLSHAGILK; Lys2; ATP probe
T5 construct: from tissue; host or cells: mouse cortical brain lysate
T5 sequence (P24788 1-784): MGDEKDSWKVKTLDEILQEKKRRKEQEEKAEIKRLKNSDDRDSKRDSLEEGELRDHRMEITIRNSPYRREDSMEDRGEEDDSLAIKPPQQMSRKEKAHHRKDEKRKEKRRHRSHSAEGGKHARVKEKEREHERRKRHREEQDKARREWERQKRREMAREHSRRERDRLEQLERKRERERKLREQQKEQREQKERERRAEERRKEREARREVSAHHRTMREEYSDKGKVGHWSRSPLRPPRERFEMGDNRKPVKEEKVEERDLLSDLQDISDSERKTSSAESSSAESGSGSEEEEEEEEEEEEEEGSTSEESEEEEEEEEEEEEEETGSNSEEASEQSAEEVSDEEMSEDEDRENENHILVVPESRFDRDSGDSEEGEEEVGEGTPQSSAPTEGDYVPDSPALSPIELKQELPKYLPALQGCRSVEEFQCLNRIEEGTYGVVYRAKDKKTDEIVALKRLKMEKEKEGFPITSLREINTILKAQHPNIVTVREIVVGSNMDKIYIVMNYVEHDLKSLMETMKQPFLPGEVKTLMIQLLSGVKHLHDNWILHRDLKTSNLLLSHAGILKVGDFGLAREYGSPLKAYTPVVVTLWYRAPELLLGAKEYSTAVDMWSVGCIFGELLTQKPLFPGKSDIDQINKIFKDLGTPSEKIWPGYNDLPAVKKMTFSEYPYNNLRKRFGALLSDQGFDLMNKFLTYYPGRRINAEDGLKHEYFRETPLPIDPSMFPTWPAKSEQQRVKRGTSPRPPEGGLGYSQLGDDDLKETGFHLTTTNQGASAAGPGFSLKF

T4 sequence (Q91YS8 whole entry): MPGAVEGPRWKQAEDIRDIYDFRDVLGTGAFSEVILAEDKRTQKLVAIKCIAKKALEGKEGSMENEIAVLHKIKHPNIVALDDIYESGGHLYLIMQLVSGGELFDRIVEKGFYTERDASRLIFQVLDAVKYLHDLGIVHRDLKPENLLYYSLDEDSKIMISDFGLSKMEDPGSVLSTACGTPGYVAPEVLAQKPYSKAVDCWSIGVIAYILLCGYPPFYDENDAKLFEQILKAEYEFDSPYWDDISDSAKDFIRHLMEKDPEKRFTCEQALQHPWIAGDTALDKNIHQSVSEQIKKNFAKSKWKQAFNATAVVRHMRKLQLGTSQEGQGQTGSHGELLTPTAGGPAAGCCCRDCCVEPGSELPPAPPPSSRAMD
T1 sequence (P16879 whole entry): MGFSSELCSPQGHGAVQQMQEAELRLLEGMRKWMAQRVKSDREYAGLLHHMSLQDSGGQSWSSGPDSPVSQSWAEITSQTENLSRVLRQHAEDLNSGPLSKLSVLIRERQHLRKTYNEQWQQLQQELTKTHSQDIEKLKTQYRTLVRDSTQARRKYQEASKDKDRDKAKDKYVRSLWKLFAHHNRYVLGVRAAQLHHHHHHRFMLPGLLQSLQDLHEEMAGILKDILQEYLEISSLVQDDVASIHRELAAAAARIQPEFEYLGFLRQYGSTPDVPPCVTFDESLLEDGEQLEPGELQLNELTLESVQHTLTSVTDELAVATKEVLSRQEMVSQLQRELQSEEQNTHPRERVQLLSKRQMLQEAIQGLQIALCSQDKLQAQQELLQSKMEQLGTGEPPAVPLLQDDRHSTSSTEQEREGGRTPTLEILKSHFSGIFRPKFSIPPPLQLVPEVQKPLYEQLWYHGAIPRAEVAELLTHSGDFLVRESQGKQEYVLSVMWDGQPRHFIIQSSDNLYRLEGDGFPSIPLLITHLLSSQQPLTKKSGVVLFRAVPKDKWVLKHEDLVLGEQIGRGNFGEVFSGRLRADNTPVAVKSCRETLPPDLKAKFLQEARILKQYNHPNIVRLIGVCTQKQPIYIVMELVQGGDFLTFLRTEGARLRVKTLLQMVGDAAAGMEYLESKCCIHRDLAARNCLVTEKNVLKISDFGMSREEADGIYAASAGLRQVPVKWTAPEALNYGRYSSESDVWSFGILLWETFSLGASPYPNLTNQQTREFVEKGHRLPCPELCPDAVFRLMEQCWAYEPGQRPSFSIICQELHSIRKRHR
T3 sequence (Q9Z1T6 whole entry): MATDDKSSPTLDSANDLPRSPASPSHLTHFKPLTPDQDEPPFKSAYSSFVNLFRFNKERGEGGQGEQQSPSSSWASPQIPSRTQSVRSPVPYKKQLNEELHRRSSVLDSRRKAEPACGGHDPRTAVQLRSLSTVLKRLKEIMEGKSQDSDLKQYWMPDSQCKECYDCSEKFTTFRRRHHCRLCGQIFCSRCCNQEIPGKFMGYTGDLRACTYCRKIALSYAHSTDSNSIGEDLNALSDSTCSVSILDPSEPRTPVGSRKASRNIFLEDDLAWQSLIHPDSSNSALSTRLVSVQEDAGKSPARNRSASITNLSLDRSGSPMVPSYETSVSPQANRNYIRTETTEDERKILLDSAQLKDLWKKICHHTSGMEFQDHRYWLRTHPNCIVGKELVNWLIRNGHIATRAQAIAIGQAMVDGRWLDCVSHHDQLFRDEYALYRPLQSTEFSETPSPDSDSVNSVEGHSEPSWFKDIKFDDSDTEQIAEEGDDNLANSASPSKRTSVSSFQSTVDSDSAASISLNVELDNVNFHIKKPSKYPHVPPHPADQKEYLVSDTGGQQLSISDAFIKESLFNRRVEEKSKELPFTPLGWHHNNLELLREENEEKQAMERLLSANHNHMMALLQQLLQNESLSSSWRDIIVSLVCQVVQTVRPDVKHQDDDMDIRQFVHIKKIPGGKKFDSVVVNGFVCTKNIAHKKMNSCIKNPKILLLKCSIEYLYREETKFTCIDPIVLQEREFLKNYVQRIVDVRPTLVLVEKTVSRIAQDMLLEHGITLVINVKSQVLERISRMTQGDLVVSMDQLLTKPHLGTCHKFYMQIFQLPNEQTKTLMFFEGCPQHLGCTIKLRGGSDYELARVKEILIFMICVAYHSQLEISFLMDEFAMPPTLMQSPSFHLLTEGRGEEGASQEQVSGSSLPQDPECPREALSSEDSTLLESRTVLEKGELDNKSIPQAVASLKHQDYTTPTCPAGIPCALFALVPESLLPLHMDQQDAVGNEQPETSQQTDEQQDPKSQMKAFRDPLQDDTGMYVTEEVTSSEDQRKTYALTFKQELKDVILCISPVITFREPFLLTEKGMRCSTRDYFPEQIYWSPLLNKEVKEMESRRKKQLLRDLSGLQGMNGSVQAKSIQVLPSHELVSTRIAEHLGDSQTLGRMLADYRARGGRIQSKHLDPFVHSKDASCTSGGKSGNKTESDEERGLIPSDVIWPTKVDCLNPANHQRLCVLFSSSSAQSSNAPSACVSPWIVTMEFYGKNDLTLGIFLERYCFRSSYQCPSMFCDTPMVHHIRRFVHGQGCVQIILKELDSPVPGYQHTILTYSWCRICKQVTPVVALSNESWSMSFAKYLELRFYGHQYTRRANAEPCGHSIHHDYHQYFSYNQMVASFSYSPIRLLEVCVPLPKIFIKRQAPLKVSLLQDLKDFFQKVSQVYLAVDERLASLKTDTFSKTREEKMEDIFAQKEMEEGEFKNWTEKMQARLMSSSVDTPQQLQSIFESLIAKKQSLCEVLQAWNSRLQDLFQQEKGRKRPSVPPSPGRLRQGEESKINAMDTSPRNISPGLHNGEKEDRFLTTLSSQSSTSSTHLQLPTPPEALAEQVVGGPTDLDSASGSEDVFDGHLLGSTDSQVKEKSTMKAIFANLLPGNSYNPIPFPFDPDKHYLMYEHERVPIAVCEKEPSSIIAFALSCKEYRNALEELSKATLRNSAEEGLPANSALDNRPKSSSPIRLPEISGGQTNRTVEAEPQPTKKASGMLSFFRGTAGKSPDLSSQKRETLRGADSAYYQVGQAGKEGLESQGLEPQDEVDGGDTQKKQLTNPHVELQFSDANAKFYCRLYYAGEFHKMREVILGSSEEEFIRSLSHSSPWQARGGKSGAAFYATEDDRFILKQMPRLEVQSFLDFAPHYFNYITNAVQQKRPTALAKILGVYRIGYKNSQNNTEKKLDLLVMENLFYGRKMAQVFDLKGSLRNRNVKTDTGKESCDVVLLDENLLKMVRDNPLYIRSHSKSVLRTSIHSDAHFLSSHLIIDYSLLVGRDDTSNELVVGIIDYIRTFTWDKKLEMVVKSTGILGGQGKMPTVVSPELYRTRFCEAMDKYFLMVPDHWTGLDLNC

CCC(C)(O)C#Cc1cc2c(ccn2-c2ccnc(N)n2)cn1 (stereo not drawn) [BIIB-TTBK1i]
Percent Inhibition with BIIB-TTBKi at 75mpk (FES): 50.6%
Percent Inhibition with BIIB-TTBKi at 75mpk (PIP4K2C): 86.3%
Percent Inhibition with BIIB-TTBKi at 75mpk (PIP5K3): 90%
Percent Inhibition with BIIB-TTBKi at 75mpk (TTBK1, TTBK2): 82%
Percent Inhibition at 1μM (CaMK1a; DLKPENLLYYSLDEDSK, Lys2, ADP probe): 64.7%
Percent Inhibition at 1μM (CaMK1a; DLKPENLLYYSLDEDSK, Lys2, ATP probe): 63.8%
Percent Inhibition at 1μM (CaMK1a; LVAIKCIAK, Lys1, ADP probe): 69.3%
Percent Inhibition at 1μM (CaMK1a; LVAIKCIAK, Lys1, ATP probe): 69.2%
Percent Inhibition at 1μM (PITSLRE): 63.3%
